According to patent US20040241114A1, “Hair Care and Nail Care Compositions Based on Ion-Pair Delivery System for Gender and Ethnic Selective Applications” (priority 2003, published 2004):

Tests used:
Assay type in all cases: physicochemical
pH of 1% water solution = test: pH of 1% water solution
[1] = Stability of water solution
Solubility in water = test: Solubility in water
Text: The ion-pair compositions thus formed are not just physical mixtures of the two compositions that are combined in an ion-pair mode to form such ion-pair compositions. Such ion-pair compositions are discreet chemical entities. For example, the combination of niacinamide with N-Acetyl-Cysteine results in the formation of ion-pair complex, Niacinamide N-Acetyl Cysteinate. […] Niacinamide N-Acetyl-Cysteinate, the ion-pair that is produced from the combination of the above two compositions is a new ingredient properties of which are very different from that of the above two compositions, which shall be described elsewhere.

SMILES | pH of 1% water solution (pH of 1% water solution) | stability of water solution [1] | solubility in water (Solubility in water) [%]
CC(=O)N[C@@H](CS)C(=O)O [N-Acetyl-Cysteine] | 3.5 | poor | > 20
NC(=O)c1cccnc1 [niacinamide] | 6.3 | good | 50
